Series [1] deals with SARS-CoV-2. Briefly: Antiviral activity against pseudovirus SARS-CoV-2 spike protein infected in HEK293 cells expressing ACE2 assessed as reduction in pseudotyped particle entry incubated for 48 hrs incubation by luminescence assay relative to control. It counts as functional, Severe acute respiratory syndrome coronavirus 2.
The next series deals with Vero C1008. Briefly: Cytotoxicity against African green monkey Vero E6 cells expressing ACE2 cells assessed as reduction in cell viability. To be noted: Chlorocebus sabaeus.
The nature of series [2]: Cytotoxicity against African green monkey Vero E6 cells expressing ACE2 cells assessed as reduction in cell viability relative to control. To be noted: chlorocebus sabaeus.
Series [3] deals with SARS-CoV-2. Briefly: microbe, parasite or virus in culture. It counts as functional, organism-based, Vero E6. To be noted: Severe acute respiratory syndrome coronavirus 2, Vero C1008, 72 h.
In series [4] the test system is SARS-CoV-2. In words: Antiviral activity against pseudovirus SARS-CoV-2 spike protein infected in HEK293 cells expressing ACE2 assessed as reduction in pseudotyped particle entry incubated for 48 hrs incubation by luminescence assay. The note with it: Severe acute respiratory syndrome coronavirus 2, HEK293, 48 h. The class given is functional, organism-based.
A short description of series [5]: Cytotoxicity against HEK293 cells expressing ACE2 cells assessed as reduction in cell viability relative to control. The note with it: human.
The subject of series [6] is Vesicular stomatitis virus. In words: microbe, parasite or virus in culture. It counts as functional, organism-based.
A further series deals with HEK293. In words: Cytotoxicity against HEK293 cells expressing ACE2 cells assessed as reduction in cell viability. The note with it: Homo sapiens.
The subject of series [7] is SARS-CoV-2. The class given is functional, Severe acute respiratory syndrome coronavirus 2, Vero E6. To be noted: time 72 hrs.
Another series deals with SARS-CoV. In words: microbe, parasite or virus in culture. The class given is functional, organism-based. To be noted: Severe acute respiratory syndrome-related coronavirus, Huh-7, 24 h.
Setting [8] is: Vesicular stomatitis virus, read-out: IC50.

What is called IC50 is the concentration needed to halve the response being measured.

As to `CC(Nc1nc(N2CCOCC2)nc2ccccc12)c1ccccc1` (configuration not stated), the Efficacy in the series on SARS-CoV-2 [1] turned out to be 94.1%. Besides, the 50% inhibitory concentration (IC50) is greater than 20 µM in the series on Vero C1008; greater than 20 µM in the series on SARS-CoV-2 [3]; 22.4 µM with SARS-CoV-2 [4]; greater than 57.5 µM in series [6] (setting [8]); greater than 57.5 µM in the series with HEK293. The Emax amounted to 23% in series [2] and 25.1% in series [5].

Take `C[C@H](Nc1nc(N2CCNCC2)nc2ccccc12)c1ccccc1`: the Efficacy was 94.3% in the series on SARS-CoV-2 [1] and 87.8% in the series on SARS-CoV-2 [7]. Moreover, the IC50 with Vero C1008 was greater than 20 µM; in the series with SARS-CoV-2 [4], 15.8 µM; in series [6] (setting [8]) it was greater than 57.5 µM; in the series with HEK293, greater than 57.5 µM. The Emax in series [2] and in [5] was 0% throughout.

Turning to `CC(Nc1nc(N2CCC(=O)CC2)nc2ccccc12)c1ccccc1` (configuration not stated), the Efficacy was 100% in the series on SARS-CoV-2 [1] and 48.5% with SARS-CoV-2 [7]. For the same compound, the Emax in series [2] and in [5] was 0% in each case. The IC50 is 13 µM with SARS-CoV-2 [3], 31.6 µM with SARS-CoV-2 [4], greater than 57.5 µM in [6] (setting [8]) and greater than 57.5 µM with HEK293.

For `CC(Nc1nc(N2CCNCC2)nc2ccccc12)c1c(F)cccc1F` (configuration not stated), the IC50 in the series with SARS-CoV was 1.65 µM; with SARS-CoV-2 [3], 14.1 µM; with SARS-CoV-2 [4], 22.4 µM; in [6] (setting [8]) it was greater than 57.5 µM; with HEK293, greater than 57.5 µM. The Efficacy with SARS-CoV-2 [1] is 88.9%; with SARS-CoV-2 [7] it was 79.9%. For the same compound, the Emax is 12.8% in series [2] and 0% in series [5].

For `CC(Nc1nc(N2CCNCC2)nc2cc(Br)ccc12)c1ccccc1` (configuration not stated), the Efficacy in the series with SARS-CoV-2 [1] is 97.1%; in the series with SARS-CoV-2 [7], 139.9%. Also, the half-maximal inhibitory concentration (IC50) in the series on Vero C1008 stood at 14.1 µM; with SARS-CoV-2 [3], 7.94 µM; with SARS-CoV-2 [4], 8.91 µM; in [6] (setting [8]) it was 7.94 µM; with HEK293, 39.8 µM. Also, the values for the Emax in series [2] and in [5] were 91.5% and 72.1%, respectively.

For the compound `CC(Nc1nc(N2CCNCC2)nc2ccc(F)cc12)c1ccccc1` (configuration not stated), the results for the Efficacy with SARS-CoV-2 [1] and in the series with SARS-CoV-2 [7] were 70.6% and 101.3%, respectively. For the same compound, the IC50 was greater than 20 µM in the series on Vero C1008; 7.94 µM in the series on SARS-CoV-2 [3]; 15.8 µM with SARS-CoV-2 [4]; greater than 57.5 µM in series [6] (setting [8]); greater than 57.5 µM in the series on HEK293. Also, the Emax in series [2] turned out to be 11.8%; in [5], 0%.

On to `CC(Nc1nc(N2CCNCC2)nc2ccccc12)c1ccccc1N` (configuration not stated), for which the results for the Efficacy in the series with SARS-CoV-2 [1] and with SARS-CoV-2 [7] were 70.2% and 31.5%, respectively. Besides, the half-inhibitory concentration (IC50) was greater than 20 µM with Vero C1008, 12.6 µM with SARS-CoV-2 [3], 39.8 µM in series [6] (setting [8]) and greater than 57.5 µM with HEK293. Besides, the Emax in [2] and in series [5] was 0% in each case.

In the case of `CC(Nc1nc(N2CCNCC2)nc2cc(-c3ccccc3)ccc12)c1ccccc1` (configuration not stated), the IC50 in the series with Vero C1008 came out at 7.94 µM; with SARS-CoV-2 [3], 4.47 µM; in the series with SARS-CoV-2 [4], 12.6 µM; in series [6] (setting [8]) it was 35.5 µM; in the series with HEK293, 39.8 µM. In the series with SARS-CoV-2 [7], this compound returned an Efficacy of 79%. Further, the Emax was 116% in [2] and 96.7% in series [5].

Consider `CC(Nc1nc(N2CCNCC2)nc2ccc(-c3ccccc3)cc12)c1ccccc1` (configuration not stated), for which the Efficacy with SARS-CoV-2 [1] amounted to 100%; in the series with SARS-CoV-2 [7] it was 81.6%. For the same compound, the concentration for half-maximal inhibition (IC50) in the series with Vero C1008 was 14.1 µM; in the series with SARS-CoV-2 [3], 7.94 µM; in the series on SARS-CoV-2 [4] it was 15.8 µM; in series [6] (setting [8]), greater than 57.5 µM; with HEK293 it was greater than 57.5 µM. Besides, the results for the Emax in series [2] and in [5] were 88.5% and 20.8%, respectively.

For the compound `CN1CCC[C@@H]1CCO[C@](C)(c1ccccc1)c1ccc(Cl)cc1.O=C(O)/C=C/C(=O)O` [CLEMASTINE FUMARATE], in [6], the IC50 result is given as “Not Active”.

The values are drawn from ChEMBL document CHEMBL4823303, “Discovery of Small Molecule Entry Inhibitors Targeting the Fusion Peptide of SARS-CoV-2 Spike Protein” (ACS Med Chem Lett, 2021).
